Source: publication PMC3080343, “Small lytic peptides escape the inhibitory effect of heparan sulfate on the surface of cancer cells” (BMC Cancer, 2011)
Read-outs that look alike come from different tables or passages of the source. Where a SMILES comes first, the peptide text is derived from it. [ ]: non-standard residue; d: D form. Dip = N[C@H](C(=O)O)C(c1ccccc1)c1ccccc1; Orn = NCCC[C@H](N)C(=O)O

Assays:
pgsA-745 = type: cell-based, Chinese hamster; conditions: for IC50: 2 h
Method: (§1) The colorimetric MTT viability assay was used to investigate the cytotoxic effect of the peptides. The HT-29, MT-1, Kelly, HUVEC and MRC-5 cells were seeded at a concentration of 2 × 10^5 cells/ml, 1.5 × 10^5 cells/ml, 2 × 10^5 cells/ml, 1 × 10^5 cells/ml and 1 × 10^5 cells/ml in a volume of 0.1 ml in 96-well plates, respectively. CHO-K1 and pgsA-745 cells were seeded at a concentration of 1 × 10^5 cells/ml. The cells were allowed to adhere overnight in complete medium. Before adding different concentrations of the peptides (10-500 μg/ml) to the cells, the culture medium was removed and the cells were washed twice in serum-free culture medium. The non-adherent lymphoma cell lines were seeded at a density of 4 × 10^5 cells/ml using serum-free medium. After incubating the cells with peptides for 30 minutes at 37°C, 0.5 mg MTT-solution was added to each well and the incubation was continued for 2 hours. A volume of 70 μl or 130 μl per well was removed from the non-adherent and adherent cells, respectively. In order to dissolve the formazan crystals, 100 μl of 0.04 M HCl in isopropanol was added and the plates were shaken for 1 hour on a Thermolyne Roto Mix (Dubuque, IA) at room temperature. The optical density was measured on a microplate reader (VERSAmax™ Molecular Devices, CA). Cells treated with 1% Triton X-100 in serum-free medium was used as positive control for 100% cell death, whereas cells in serum free medium were used as negative control. Cell survival was determined from the ΔA590 nm relative to the negative control (100% living cells) and expressed as 50% inhibitory concentration (IC50).

CHO-K1 = type: cell-based, Chinese hamster; conditions: 2 h
Method: as §1

[1] = tested on: carcinoma cell lines HT-29 and MT-1; test: MTT viability assay, carcinoma cell lines HT-29 and MT-1; type: cell-based; conditions: selectivity versus HUVEC and MRC-5
Method: as §1, with “Cells treated with 1% Triton X-100 in serum-free medium was used as positive control for 100% cell death, whereas cells in serum free medium were used as negative control. Cell survival was determined from the ΔA590 nm relative to the negative control (100% living cells) and expressed as 50% inhibitory concentration (IC50).” left out

HUVEC = type: cell-based, human; conditions: 2 h
Method: as §1

[2] = Affinity chromatography on CS-Sepharose; type: binding; conditions: NaCl needed to elute peptide from CS-Sepharose; mean of four experiments
Method: (§2) Two different Sepharose affinity columns were prepared, using HS and CS as ligands. The ligands were mixed with swollen CNBr-activated Sepharose 4B. Non-reactive groups were blocked with 0.1 M Tris-HCl, pH 8.0 and the gel was washed before packing. The peptides were dissolved in 5 mM phosphate-buffer, pH 7.4 at a concentration of 0.5 mg/ml, and 50 μl samples were applied. A gradient of NaCl was used to elute the different peptides from the columns using a GradiFrac from Amersham Pharmacia Biotech (Uppsala, Sweden) at a flow rate of 1.0 ml/min. The peptides were detected using a monitor UV-1 from Amershan Pharmacia Biotech (Uppsala, Sweden).

CHO-K1 cells = type: cell-based, Chinese hamster
Method: as §1
In order to investigate whether soluble CS or HS would interfere with the cytotoxic activity, the peptides were added to cultures of CHO-K1 cells together with exogenous CS and HS. […] The cytotoxic activity of LTX-318 was not inhibited in the presence of soluble CS or HS (Figure 5c).

[3] = tested on: human red blood cells (RBC); type: cell-based; conditions: red cells of human, 1 h
Method: The hemolytic activity of the peptides was determined using freshly isolated human red blood cells (RBC) as previously described. Briefly, venous blood was collected, transferred to a tube containing heparin (10 U/ml) and centrifuged at 1500 rpm for 10 minutes in order to isolate the red blood cells. The red blood cells were washed three times with PBS (35 mM phosphate buffer with 150 mM NaCl, pH 7.4) by centrifugation at 1500 rpm for 10 minutes, and adjusted to 10% hematocrit with PBS. Peptide solutions were added to yield a final concentration range of the peptide from 1000 μg/ml to 1 μg/ml and a red blood cell concentration of 1%. The resulting suspension was incubated with agitation for 1 hour at 37°C. After incubation the suspension was centrifuged at 4000 rpm for 5 minutes, and the released hemoglobin were monitored by measuring the absorbance of the supernatant at 405 nm on a microplate reader (VERSAmax™ Molecular Devices, CA). PBS and 1% Triton X-100 were used as negative and positive controls, respectively. Peptide concentrations corresponding to 50% hemolysis (EC50) were determined from dose-response curves.

KMS-5 = type: cell-based; conditions: 2 h
Method: as §1

KMM-1 = type: cell-based; conditions: 2 h
Method: as §1

Kelly = type: cell-based; conditions: for IC50: 2 h
Method: as §1

Ramos = type: cell-based; conditions: 2 h
Method: as §1

Sudhl-4 = type: cell-based; conditions: 2 h
Method: as §1

MT-1 = type: cell-based; conditions: 2 h
Method: as §1

lymphoma cells = type: cell-based; conditions: 2 h
Method: as §1

U-266 = type: cell-based; conditions: 2 h
Method: as §1

HT-29 = type: cell-based; conditions: 2 h
Method: as §1

[4] = Affinity chromatography on HS-Sepharose; type: binding; conditions: NaCl needed to elute peptide from HS-Sepharose; mean of four experiments
Method: as §2

tumor = tested on: tumor; parameters: method as in PMID 20422410; conditions: cited from earlier work
[5] = MTT viability assay, MRC-5 fibroblast-like cells; type: cell-based; conditions: human
Method: as §1

MRC-5 = test: MTT viability assay, MRC-5 fibroblast-like cells; type: cell-based; conditions: 2 h
Method: as §1

[6] = tested on: human red blood cells (RBC); parameters: method as in Eliassen et al. [69]; conditions: hemolysis; ref Eliassen et al. [69]; cited from earlier work

With `NCCCC[C@H](NC(=O)[C@H](Cc1c[nH]c2ccccc12)NC(=O)[C@H](CCCCN)NC(=O)[C@H](CCCCN)NC(=O)[C@@H](NC(=O)[C@H](Cc1c[nH]c2ccccc12)NC(=O)[C@H](CCCCN)NC(=O)[C@H](CCCCN)NC(=O)[C@@H](N)Cc1c[nH]c2ccccc12)C(c1ccccc1)c1ccccc1)C(N)=O` [LTX-302, WKKWDipKKWK-NH2] (H-WKKW[Dip]KKWK-NH2; N-terminus assumed) the “Ratio (IC50) pgsA-745/CHO-K1” value (pgsA-745) was 1.28, the IC50 (pgsA-745) was 54 ± 2 µM and the IC50 (CHO-K1) was 42 ± 7 µM. The “fold higher activity against carcinoma cell lines in comparison to endothelial and fibroblast cells” value [1] was ~ 2 fold, the IC50 (HUVEC) was 123 ± 9 µM and the “Elution concentration from CS” value [2] was 187 ± 13 mM NaCl. The “inhibitory effect of soluble CS and HS on cytotoxic activity” value (CHO-K1 cells) was “only a negligible inhibitory effect”, the “inhibitory effect of soluble HS on cytotoxic activity compared to CS” value (CHO-K1 cells) was “much higher inhibitory effect” and the IC50 [3] was over 695 µM. It also gave an IC50 (KMS-5) of 31 µM, an IC50 (KMM-1) of 40 ± 6 µM and an IC50 (Kelly) of 28 µM. The “fold higher activity against neuroblastoma cell line in comparison to endothelial and fibroblast cells” value (Kelly; selectivity versus HUVEC and MRC-5) was ~ 4.5 fold, the IC50 (Ramos) was 30 ± 2 µM and the IC50 (Sudhl-4) was 46 ± 6 µM. The IC50 (MT-1) was 73 ± 2 µM, the IC50 (lymphoma cells) was 31 to 46 µM and the IC50 (U-266) was 36 ± 6 µM. For the same compound, the IC50 (HT-29) was 75 ± 5 µM, the “Elution concentration from HS” value [4] was 330 ± 9 mM NaCl and the “tumor response after intratumoral injection” value (tumor) was “complete regression of the tumor”. For the same compound, the IC50 at 30 min [5] was 126 ± 11 µM.

Work on `NCCCC[C@H](NC(=O)[C@@H](NC(=O)[C@H](Cc1c[nH]c2ccccc12)NC(=O)[C@H](CCCCN)NC(=O)[C@H](CCCCN)NC(=O)[C@H](Cc1c[nH]c2ccccc12)NC(=O)[C@H](Cc1c[nH]c2ccccc12)NC(=O)[C@H](CCCCN)NC(=O)[C@@H](N)CCCCN)C(c1ccccc1)c1ccccc1)C(N)=O` [LTX-315, KKWWKKWDipK-NH2] (H-KKWWKKW[Dip]K-NH2) yielded an IC50 (pgsA-745) of 22 ± 3 µM, an IC50 (CHO-K1) of 22 ± 5 µM and an IC50 (HUVEC) of 28 ± 1 µM. For the same compound, the “inhibitory effect of soluble CS and HS on cytotoxic activity” value (CHO-K1 cells) was “only a negligible inhibitory effect”, the “inhibitory effect of soluble HS on cytotoxic activity compared to CS” value (CHO-K1 cells) was “much higher inhibitory effect” and the “EC50 (50% hemolysis)” value [3] was over 1000 µg/mL. For the same compound, the IC50 [3] was over 695 µM, the IC50 (KMS-5) was 10 ± 1.5 µM and the IC50 (KMM-1) was 17 ± 2 µM. The IC50 (Kelly) was 14 ± 1 µM, the IC50 (Ramos) was 10 ± 1.7 µM and the IC50 (Sudhl-4) was 23 ± 2 µM. For the same compound, the IC50 (MT-1) was 31 ± 3 µM, the IC50 (lymphoma cells) was 10 to 23 µM and the IC50 (U-266) was 13 ± 1.5 µM. The IC50 (HT-29) was 38 ± 3 µM and the IC50 at 30 min [5] was 41 ± 3 µM.

For `NCCC[C@H](NC(=O)[C@H](Cc1c[nH]c2ccccc12)NC(=O)[C@H](Cc1c[nH]c2ccccc12)NC(=O)[C@H](CCCN)NC(=O)[C@H](CCCN)NC(=O)[C@@H](NC(=O)[C@H](Cc1c[nH]c2ccccc12)NC(=O)[C@H](CCCN)NC(=O)[C@@H](N)CCCN)C(c1ccccc1)c1ccccc1)C(N)=O` [LTX-318, OOWDipOOWWO-NH2] (H-[Orn][Orn]W[Dip][Orn][Orn]WW[Orn]-NH2), the IC50 (pgsA-745) was 176 ± 3 µM, the IC50 (CHO-K1) was 145 ± 6 µM and the IC50 (HUVEC) was over 347 µM. The “IC50 against endothelial cells (no IC50 value at the highest concentration tested)” value (HUVEC) was over 500 µg/mL, the “cytotoxic activity in the presence of soluble CS or HS” value (CHO-K1 cells) was “not inhibited” and the IC50 [3] was over 695 µM. For the same compound, the IC50 (KMS-5) was 73 ± 5 µM, the IC50 (KMM-1) was 111 ± 1 µM and the IC50 (Kelly) was 78 ± 7 µM. It also gave an IC50 (Ramos) of 82 ± 11 µM, an IC50 (Sudhl-4) of 110 ± 5 µM and an IC50 (MT-1) of 216 ± 36 µM. The IC50 (lymphoma cells) was 73 to 106 µM, the IC50 (U-266) was 106 ± 17 µM and the IC50 (HT-29) was 248 ± 5 µM. The IC50 at 30 min [5] was over 347 µM and the “IC50 against fibroblast cells (no IC50 value at the highest concentration tested)” value (MRC-5) was over 500 µg/mL.

For `CC[C@H](C)[C@@H]1NC(=O)[C@H](CO)NC(=O)[C@@H]2CCCN2C(=O)[C@H](C)NC(=O)CNC(=O)[C@H](CC(C)C)NC(=O)[C@H](CCCCN)NC(=O)[C@H](CCCCN)NC(=O)[C@H](CCSC)NC(=O)[C@H](CCCNC(=N)N)NC(=O)[C@H](Cc2c[nH]c3ccccc23)NC(=O)[C@H](CCC(N)=O)NC(=O)[C@H](Cc2c[nH]c3ccccc23)NC(=O)[C@H](CCCNC(=N)N)NC(=O)[C@H](CCCNC(=N)N)NC(=O)[C@@H](NC(=O)[C@H](CCCCN)NC(=O)[C@@H](N)Cc2ccccc2)CSSC[C@@H](C(=O)N[C@H](C(=O)N[C@@H](CCCNC(=N)N)C(=O)N[C@@H](CCCNC(=N)N)C(=O)N[C@@H](C)C(=O)N[C@@H](Cc2ccccc2)C(=O)O)C(C)C)NC(=O)[C@H]([C@@H](C)O)NC1=O` [LfcinB, bovine lactoferricin, reference compound], the “Elution concentration from CS” value [2] is listed as 130 ± 9 mM NaCl, the IC50 [6] is listed as over 500 µM and the “Elution concentration from HS” value [4] is listed as 417 ± 4 mM NaCl. It also gave an IC50 at 30 min ([5]; MTT, 30 min incubation, serum-free, read-out: MRC-5 IC50) of over 160 µM.
